Reference: PubChem BioAssay (NCI)
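All cell lines were grown in 96-well plates and treated with compound for 48 hours. TGI marks complete inhibition of growth.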

What was measured:
Experiment in all cases: NCI tumour cell line growth inhibition, 48 h
[1] = test system: SK-MEL-28 melanoma
[2] = test system: A549 NSCLC
[3] = test system: HOP-62 NSCLC
[4] = test system: HCT-116 colon
[5] = test system: MDA-MB-435
[6] = test system: SR leukemia
[7] = test system: HCT-15 colon
[8] = test system: COLO 205 colon
[9] = test system: MOLT-4 leukemia
[10] = test system: NCI-H460 lung
[11] = test system: NCI-H226 lung
[12] = test system: KM12 colon
[13] = test system: NCI/ADR-RES ovarian
[14] = test system: BT-549 breast
[15] = test system: HOP-92 NSCLC
[16] = test system: NCI-H23 lung
[17] = test system: UACC-257 melanoma
[18] = test system: OVCAR-8 ovarian
[19] = test system: SK-OV-3 ovarian
[20] = test system: SW-620 colon
[21] = test system: ACHN renal
[22] = test system: MCF7 breast
[23] = test system: EKVX NSCLC
[24] = test system: IGROV1 ovarian
[25] = test system: MDA-N
[26] = test system: U251 CNS
[27] = test system: SK-MEL-5 melanoma
[28] = test system: HCC-2998 colon
[29] = test system: SN12C renal
[30] = test system: LOX IMVI melanoma
[31] = test system: T-47D breast
[32] = test system: UACC-62 melanoma
[33] = test system: HS 578T breast
[34] = test system: A498 renal
[35] = test system: 786-0 renal
[36] = test system: NCI-H522 lung
[37] = test system: DU-145 prostate
[38] = test system: MALME-3M melanoma
[39] = test system: RPMI-8226 leukemia
[40] = test system: CAKI-1 renal
[41] = test system: HT29 colon
[42] = test system: M14 melanoma
[43] = test system: MDA-MB-231 breast
[44] = test system: CCRF-CEM leukemia
[45] = test system: OVCAR-4 ovarian
[46] = test system: RXF 393 renal
[47] = test system: OVCAR-5 ovarian
[48] = test system: UO-31 renal
[49] = test system: SNB-19 CNS
[50] = test system: K-562 leukemia
[51] = test system: SK-MEL-2 melanoma
[52] = test system: OVCAR-3 ovarian
[53] = test system: SF-295 CNS
[54] = test system: SNB-75 CNS
[55] = test system: HL-60(TB) leukemia
[56] = test system: PC-3 prostate
[57] = test system: SF-539 CNS
[58] = test system: TK-10 renal
[59] = test system: SF-268 CNS

For O=C1NC(=O)C(F)(n2cc(F)c(=O)[nH]c2=O)C(O)N1 (configuration not stated), the TGI [1] was greater than 10 µM, the TGI [2] was greater than 10 µM and the TGI [3] was greater than 10 µM. It also gave a TGI [4] greater than 10 µM, a TGI [5] greater than 10 µM and a TGI [6] greater than 10 µM. The TGI [7] was greater than 10 µM, the TGI [8] was greater than 10 µM and the TGI [9] was greater than 10 µM. It also gave a TGI [10] greater than 10 µM, a TGI [11] greater than 10 µM and a TGI [12] greater than 10 µM. The TGI [13] was greater than 10 µM, the TGI [14] was greater than 10 µM and the TGI [15] was greater than 10 µM. The TGI [16] was greater than 10 µM, the TGI [17] was greater than 10 µM and the TGI [18] was greater than 10 µM. It also gave a TGI [19] greater than 10 µM, a TGI [20] greater than 10 µM and a TGI [21] greater than 10 µM. It also gave a TGI [22] greater than 10 µM, a TGI [23] greater than 10 µM and a TGI [24] greater than 10 µM. For the same compound, the TGI [25] was greater than 10 µM, the TGI [26] was greater than 10 µM and the TGI [27] was greater than 10 µM. For the same compound, the TGI [28] was greater than 10 µM, the TGI [29] was greater than 10 µM and the TGI [30] was greater than 10 µM. It also gave a TGI [31] greater than 10 µM, a TGI [32] greater than 10 µM and a TGI [33] greater than 10 µM. It also gave a TGI [34] greater than 10 µM, a TGI [35] greater than 10 µM and a TGI [36] greater than 10 µM. For the same compound, the TGI [37] was greater than 10 µM, the TGI [38] was greater than 10 µM and the TGI [39] was greater than 10 µM. For the same compound, the TGI [40] was greater than 10 µM, the TGI [41] was greater than 10 µM and the TGI [42] was greater than 10 µM. For the same compound, the TGI [43] was greater than 10 µM, the TGI [44] was greater than 10 µM and the TGI [45] was greater than 10 µM. It also gave a TGI [46] greater than 10 µM, a TGI [47] greater than 10 µM and a TGI [48] greater than 10 µM. For the same compound, the TGI [49] was greater than 10 µM, the TGI [50] was greater than 10 µM and the TGI [51] was greater than 10 µM. It also gave a TGI [52] greater than 10 µM, a TGI [53] greater than 10 µM and a TGI [54] greater than 10 µM. It also gave a TGI [55] greater than 10 µM, a TGI [56] greater than 10 µM and a TGI [57] greater than 10 µM. It also gave a TGI [58] greater than 10 µM and a TGI [59] greater than 10 µM.
Work on COC(=O)/C=C1\C(=O)N(C(C)=O)c2ccc(Br)cc21 yielded a TGI [1] of 28.6 µM, a TGI [2] of 36 µM and a TGI [3] of 25.9 µM. The TGI [4] was 19.8 µM, the TGI [5] was 22 µM and the TGI [6] was 13.5 µM. The TGI [7] was 21.7 µM, the TGI [8] was 27.8 µM and the TGI [9] was 10 µM. The TGI [10] was 30.4 µM, the TGI [11] was 29.4 µM and the TGI [12] was 28.6 µM. It also gave a TGI [13] of 36.9 µM, a TGI [14] of 22.8 µM and a TGI [15] of 29.5 µM. It also gave a TGI [16] of 32.4 µM, a TGI [17] of 22.8 µM and a TGI [18] of 24 µM. The TGI [19] was 29.1 µM, the TGI [20] was 25.9 µM and the TGI [21] was 23.9 µM. The TGI [22] was 16.8 µM, the TGI [23] was 32.1 µM and the TGI [24] was 20.7 µM. For the same compound, the TGI [25] was 24 µM, the TGI [26] was 20 µM and the TGI [27] was 23 µM. It also gave a TGI [28] of 31.9 µM, a TGI [29] of 18.3 µM and a TGI [30] of 20.3 µM. The TGI [31] was 15.1 µM, the TGI [32] was 25.3 µM and the TGI [33] was 36.8 µM. It also gave a TGI [34] of 51.6 µM, a TGI [35] of 18 µM and a TGI [36] of 13.3 µM. For the same compound, the TGI [37] was 25.5 µM, the TGI [38] was 35.3 µM and the TGI [39] was 6.95 µM. The TGI [40] was greater than 47 µM, the TGI [41] was 25 µM and the TGI [42] was 23 µM. It also gave a TGI [43] of 28.2 µM, a TGI [44] of 4.84 µM and a TGI [45] of 25.9 µM. The TGI [46] was 21.2 µM, the TGI [47] was 32.4 µM and the TGI [48] was 3.91 µM. It also gave a TGI [49] of 27.9 µM, a TGI [50] of 44.9 µM and a TGI [51] of 27.7 µM. For the same compound, the TGI [52] was 15.7 µM, the TGI [53] was 31.6 µM and the TGI [54] was 21.8 µM. For the same compound, the TGI [55] was 5.66 µM, the TGI [56] was 20.9 µM and the TGI [57] was 9.65 µM. For the same compound, the TGI [58] was 14.6 µM and the TGI [59] was 21.1 µM.
O=P12N(CCN1c1ccccc1)CCN2c1ccccc1 was tested, and the TGI [1] was greater than 100 µM, the TGI [2] was greater than 100 µM and the TGI [3] was greater than 100 µM. For the same compound, the TGI [4] was greater than 100 µM, the TGI [5] was greater than 100 µM and the TGI [6] was greater than 100 µM. It also gave a TGI [7] greater than 100 µM, a TGI [8] greater than 100 µM and a TGI [9] greater than 100 µM. For the same compound, the TGI [10] was greater than 100 µM, the TGI [11] was greater than 100 µM and the TGI [12] was greater than 100 µM. For the same compound, the TGI [13] was greater than 100 µM, the TGI [14] was greater than 100 µM and the TGI [15] was greater than 100 µM. The TGI [16] was greater than 100 µM, the TGI [17] was greater than 100 µM and the TGI [18] was greater than 100 µM. The TGI [19] was greater than 100 µM, the TGI [20] was greater than 100 µM and the TGI [21] was greater than 100 µM. It also gave a TGI [22] greater than 100 µM, a TGI [23] greater than 100 µM and a TGI [24] greater than 100 µM. It also gave a TGI [25] greater than 100 µM, a TGI [26] greater than 100 µM and a TGI [27] greater than 100 µM. For the same compound, the TGI [28] was greater than 100 µM, the TGI [29] was greater than 100 µM and the TGI [30] was greater than 100 µM. It also gave a TGI [31] greater than 100 µM, a TGI [32] greater than 100 µM and a TGI [33] greater than 100 µM. The TGI [34] was greater than 100 µM, the TGI [35] was greater than 100 µM and the TGI [36] was greater than 100 µM. It also gave a TGI [37] greater than 100 µM, a TGI [38] greater than 100 µM and a TGI [39] greater than 100 µM. For the same compound, the TGI [40] was greater than 100 µM, the TGI [41] was greater than 100 µM and the TGI [42] was greater than 100 µM. It also gave a TGI [43] greater than 100 µM, a TGI [44] greater than 100 µM and a TGI [45] greater than 100 µM. For the same compound, the TGI [46] was greater than 100 µM, the TGI [47] was greater than 100 µM and the TGI [48] was greater than 100 µM. It also gave a TGI [49] greater than 100 µM, a TGI [50] greater than 100 µM and a TGI [51] greater than 100 µM. The TGI [52] was greater than 100 µM, the TGI [53] was greater than 100 µM and the TGI [54] was greater than 100 µM. For the same compound, the TGI [55] was greater than 100 µM, the TGI [56] was greater than 100 µM and the TGI [57] was greater than 100 µM. The TGI [58] was greater than 100 µM and the TGI [59] was greater than 100 µM.
